Activity calls are given as the source filed them. The rule behind the calls is not given here.
Legend:
Hepatitis C virus [1] = assay: Antiviral activity against HCV psuedoparticles infected in human Huh7 cells assessed as inhibition of virus entry at 1 to 5 uM using Bright Glo reagent after 72 hrs by Luciferase reporter gene assay; format: functional
[2] = tested on: Vesicular stomatitis virus; assay: Antiviral activity against VSV psuedoparticles infected in human Huh7 cells assessed as inhibition of virus entry at 1 to 5 uM using Bright Glo reagent after 72 hrs by Luciferase reporter gene assay; format: functional, organism-based; conditions: Huh-7
Hepatitis C virus [3] = assay: Antiviral activity against HCV psuedoparticles infected in human Huh7 cells assessed as inhibition of virus entry at 10 uM using Bright Glo reagent after 72 hrs by Luciferase reporter gene assay; format: functional, Hepacivirus hominis, Huh-7; design: scale not given: the % may be the effect or the level left

Compound	Activity (Hepatitis C virus [1]; Hepacivirus hominis, Huh-7)	Activity [2]	Activity (Hepatitis C virus [1])	Activity (Hepatitis C virus [3])
CC1(C)CC[C@]2(C(=O)O)[C@H](O)C[C@]3(C)[C@H](C(=O)C[C@@H]4[C@@]5(C)CCC(=O)OC(C)(C)[C@@H]5CC[C@]43C)[C@@H]2C1	Active	inactive		
CC1(C)CC[C@]2(C(=O)O)[C@H](O)C[C@]3(C)C(=CC[C@@H]4[C@@]5(C)CC[C@H](O)C(C)(C)[C@@H]5CC[C@]43C)[C@H]2C1 [ECHINOCYSTIC ACID]			90%	
COC(=O)[C@]12CCC(C)(C)C[C@H]1[C@H]1C(=O)OC[C@@H]3[C@@]4(C)CC[C@H](O)C(C)(C)[C@@H]4CC[C@@]3(C)[C@]1(C)C[C@H]2O	Active	inactive		
CC1(C)CC[C@]2(C(=O)O)[C@H](O)C[C@]3(C)[C@H](OC(=O)C[C@@H]4[C@@](C)(CCC(=O)O)[C@H](C(C)(C)O)CC[C@]43C)[C@@H]2C1	Active	inactive		
CC1(C)CC[C@]2(CO)[C@H](O)C[C@@](C)([C@]3(C)CC[C@H]4C(C)(C)[C@@H](O)CC[C@]4(C)C3CCO)C(O)[C@@H]2C1 (stereo not given in full)	Active	inactive		
CC1(C)CC[C@]2(C(=O)O)[C@H](O)C[C@]3(C)[C@H](C(=O)OC[C@@H]4[C@@]5(C)CC[C@H](O)C(C)(C)[C@@H]5CC[C@]43C)[C@@H]2C1	Active	inactive		
CC1(C)CC[C@]2(C(=O)O)[C@H](O)C[C@]3(C)[C@H](C(=O)OC[C@@H]4[C@@]5(C)CCC(=O)OC(C)(C)[C@@H]5CC[C@]43C)[C@@H]2C1	Active	inactive		
C[C@H]1[C@H](C)CC[C@]2(C(=O)O)CC[C@]3(C)C(=CC[C@@H]4[C@@]5(C)CC[C@H](O)C(C)(C)[C@@H]5CC[C@]43C)[C@H]12 [URSOLIC ACID]				30%
CC1(C)CC[C@]2(CO)[C@H](O)C[C@]3(C)[C@H](C(O)C[C@@H]4[C@@](C)(CCCO)[C@H](C(C)(C)O)CC[C@]43C)[C@@H]2C1 (stereo not given in full)	Active	inactive		
CC1(C)CC[C@]2(C(=O)O)[C@H](O)C[C@]3(C)[C@H](C(=O)C=C4[C@@]5(C)CC[C@H](O)C(C)(C)[C@@H]5CC[C@]43C)[C@@H]2C1	Active	inactive		
CC1(C)CC[C@]2(C(=O)O)[C@H](O)C[C@]3(C)[C@H](C(=O)C[C@@H]4[C@@](C)(CCC(=O)O)[C@H](C(C)(C)O)CC[C@]43C)[C@@H]2C1	Active	inactive		
CC1(C)[C@@H](O)CC[C@]2(C)[C@H]3C(=O)C=C4[C@@H]5C[C@@](C)(C(=O)O)CC[C@]5(C)CC[C@@]4(C)[C@]3(C)CC[C@@H]12 [ENOXOLONE]				5%
CC1(C)CC[C@]2(C(=O)O)[C@H](O)C[C@]3(C)[C@H](OC(=O)C[C@@H]4[C@@]5(C)CCC(=O)OC(C)(C)[C@@H]5CC[C@]43C)[C@@H]2C1	Active	inactive		
COC(=O)[C@]12CCC(C)(C)C[C@H]1[C@H]1OC(=O)C[C@@H]3[C@@]4(C)CC[C@H](O)C(C)(C)[C@@H]4CC[C@@]3(C)[C@]1(C)C[C@H]2O	Active	inactive		
CC1(C)CC[C@]2(C(=O)O)[C@H](O)C[C@]3(C)[C@H](C(=O)OC[C@@H]4[C@@](C)(CCC(=O)O)[C@H](C(C)(C)O)CC[C@]43C)[C@@H]2C1	Active	inactive		
C=C(C)[C@@H]1CC[C@]2(C(=O)O)CC[C@]3(C)[C@H](CC[C@@H]4[C@@]5(C)CC[C@H](O)C(C)(C)[C@@H]5CC[C@]43C)[C@@H]12 [BETULINIC ACID]				75%
CC1(C)CC[C@]2(C(=O)O)[C@H](O)C[C@]3(C)[C@H](OC(=O)C[C@@H]4[C@@]5(C)CC[C@H](O)C(C)(C)[C@@H]5CC[C@]43C)[C@@H]2C1	Active	inactive		
